Measurements published in patent US12065442B2, “Tropomyosin receptor kinase (TRK) degradation compounds and methods of use” (Cullgen (Shanghai), Inc., priority 2018, dated 2024).

What follows are compounds tested on KM12 cells (assay: Cell viability assay (CellTiter-Glo) in KM12 cells). Details: Homo sapiens, 72 h; Table 2; KM12 cell viability, CellTiter-Glo, 3 days; read-out: IC50.
Format: cell-based

SMILES | IC50
Cc1ncsc1-c1ccc(CNC(=O)[C@@H]2C[C@@H](O)CN2C(=O)[C@@H](NC(=O)CCCCCC(=O)N2CCN(c3cccc(-c4cnc5ccc(N6CCC[C@@H]6c6cccc(F)c6)nn45)n3)CC2)C(C)(C)C)cc1 [CPD-004, (2S,4R)-1-((S)-2-(7-(4-(6-(6-((R)-2-(3-Fluorophenyl)pyrrolidin-1-yl)imidazo[1,2-b]pyridazin-3-yl)pyridin-2-yl)piperazin-1-yl)-7-oxoheptanamido)-3,3-dimethylbutanoyl)-4-hydroxy-N-(4-(4-methylthiazol-5-yl)benzyl)pyrrolidine-2-carboxamide] | 176 nM
O=C1CCC(N2C(=O)c3cccc(NCCCCCCC(=O)N4CCN(c5ccc(C(=O)Nc6n[nH]c7ccc(Cc8cc(F)cc(F)c8)cc67)c(NC6CCOCC6)c5)CC4)c3C2=O)C(=O)N1 (centres unmarked) [CPD-049, N-(5-(3,5-difluorobenzyl)-1H-indazol-3-yl)-4-(4-(7-((2-(2,6-dioxopiperidin-3-yl)-1,3-dioxoisoindolin-4-yl)amino)heptanoyl)piperazin-1-yl)-2-((tetrahydro-2H-pyran-4-yl)amino)benzamide] | 73 nM
O=C1CCC(N2C(=O)c3cccc(NCCOCCOCCOCCOCCC(=O)N4CCN(c5cccc(-c6cnc7ccc(N8CCC[C@@H]8c8cccc(F)c8)nn67)n5)CC4)c3C2=O)C(=O)N1 (stereo partly drawn) [CPD-021, 2-(2,6-Dioxopiperidin-3-yl)-4-((15-(4-(6-(6-((R)-2-(3-fluorophenyl)pyrrolidin-1-yl)imidazo[1,2-b]pyridazin-3-yl)pyridin-2-yl)piperazin-1-yl)-15-oxo-3,6,9,12-tetraoxapentadecyl)amino)isoindoline-1,3-dione] | 27.4 nM
Cc1ncsc1-c1ccc(CNC(=O)[C@@H]2C[C@@H](O)CN2C(=O)[C@@H](NC(=O)CCOCCOCCC(=O)N2CCN(c3ccc(C(=O)Nc4n[nH]c5ccc(Cc6cc(F)cc(F)c6)cc45)c(NC4CCOCC4)c3)CC2)C(C)(C)C)cc1 [CPD-038, (2S,4R)-1-((S)-2-(3-(2-(3-(4-(4-((5-(3,5-Difluorobenzyl)-1H-indazol-3-yl)carbamoyl)-3-((tetrahydro-2H-pyran-4-yl)amino)phenyl)piperazin-1-yl)-3-oxopropoxy)ethoxy)propanamido)-3,3-dimethylbutanoyl)-4-hydroxy-N-(4-(4-methylthiazol-5-yl)benzyl)pyrrolidine-2-carboxamide] | 359 nM

Same assay, conditions: Homo sapiens, 72 h; Table 3; KM12 cell viability, CellTiter-Glo, 3 days; read-out: IC50

SMILES | IC50
O=C(CN1CCN(c2cccc(-c3cnc4ccc(N5CCC[C@@H]5c5cccc(F)c5)nn34)n2)CC1)NCCOCCOCCOCCOCCOCCNc1cccc2c1C(=O)N(C1CCC(=O)NC1=O)C2=O (stereo partly drawn) [TR-104, N-(17-((2-(2,6-dioxopiperidin-3-yl)-1,3-dioxoisoindolin-4-yl)amino)-3,6,9,12,15-pentaoxaheptadecyl)-2-(4-(6-(6-((R)-2-(3-fluorophenyl)pyrrolidin-1-yl)imidazo[1,2-b]pyridazin-3-yl)pyridin-2-yl)piperazin-1-yl)acetamide] | 8.1 nM
O=C1CCC(N2C(=O)c3ccc(N4CC(N5CCN(c6cccc(-c7cnc8ccc(N9CCC[C@@H]9c9cccc(F)c9)nn78)n6)CC5)C4)cc3C2=O)C(=O)N1 (stereo partly drawn) [TR-184, 2-(2,6-dioxopiperidin-3-yl)-5-(3-(4-(6-(6-((R)-2-(3-fluorophenyl)pyrrolidin-1-yl)imidazo[1,2-b]pyridazin-3-yl)pyridin-2-yl)piperazin-1-yl)azetidin-1-yl)isoindoline-1,3-dione] | 9.3 nM
CN1CCN(c2ccc(C(=O)Nc3n[nH]c4ccc(Cc5cc(F)cc(F)c5)cc34)c(NC3CCOCC3)c2)CC1 [Entrectinib, entrectinib, reference compound] | 4.3 nM
O=C1CCC(N2Cc3ccc(C#CC(=O)N4CCN(c5cccc(-c6cnc7ccc(N8CCC[C@@H]8c8cccc(F)c8)nn67)n5)CC4)cc3C2=O)C(=O)N1 (stereo partly drawn) [TR-202, 3-(6-(3-(4-(6-(6-((R)-2-(3-fluorophenyl)pyrrolidin-1-yl)imidazo[1,2-b]pyridazin-3-yl)pyridin-2-yl)piperazin-1-yl)-3-oxoprop-1-yn-1-yl)-1-oxoisoindolin-2-yl)piperidine-2,6-dione] | 4.3 nM
